Key:
Type in all cases: physicochemical
[1] = Stability tests of Crystal Form A in different solvents; settings: for Status (after 2 days): 50 mg, stirred at 40° C. for 2 days
Procedure: The solids in all samples were collected and dried in vacuum drying oven (40° C.) overnight. The crystal forms were tested for XRPD.

[2] = Solid stability test at high temperature, high humidity and strong light
Procedure: (§1) Content Determination Method
(§2) Device: Agilent 1260 High Performance Liquid Chromatograph with DAD detector or Shimadzu LC-20A High Performance Liquid Chromatograph with PDA detector
(§3) Detailed Chromatographic parameters are as follows:
(§4) Chromatographic column: Agilent Eclipse plus C18 (4.6 mm×150 mm, 3.5 μm)
(§5) Column temperature: 40° C.
(§6) Detecting wavelength: 230 nm
(§7) Mobile Phase A: 0.04% trifluoroacetic acid aqueous solution (V/V)
(§8) Mobile Phase B: acetonitrile
(§9) Diluent: acetonitrile: purified water=3:1 (v/v)
(§10) Probe Wash: acetonitrile: purified water=3:1 (v/v)
(§11) Gradient elution procedure: […]
The samples placed under high temperature and high humidity conditions were placed in a desiccator for inspection, and the samples were taken on the 5th, 10th and 30th days for testing, and the test results were compared with the initial test results of day 0. The samples placed under strong light were covered with a transparent lid with a sealing film, and the samples were taken on the 5th and 10th days for testing, and the test results were compared with the initial test results on day 0.

[3] = Solid stability test under accelerated conditions (40° C./Relative Humidity 75%, sealed)
Procedure: as §1, §2, §3, §4, §5, §6, §7, §8, §9, §10, §11
Each layer of the low-density polyethylene bag was buckled and sealed respectively and then the bag was placed in an aluminum foil bag and heat-sealed. The samples were taken on the 1st, 2nd, 3rd and 6th months for testing, and the test results were compared with the initial test results of day 0.

[4] = as above; settings: 6th month
[5] = High humidity (Room Temperature/Relative Humidity 92.5%, Open), Day 5
[6] = High humidity (Room Temperature/Relative Humidity 92.5%, Open), Day 10
[7] = High humidity (Room Temperature/Relative Humidity 92.5%, Open), Day 30
[8] = High temperature (60° C., Open), Day 5
[9] = High temperature (60° C., Open), Day 10
[10] = High temperature (60° C., Open), Day 30
[11] = Strong light (4500 ± 500 lux, 90 μw/cm^2, Sealed), Day 5
[12] = Strong light (4500 ± 500 lux, 90 μw/cm^2, Sealed), Day 10
[13] = Batch 1, 40° C./Relative Humidity 75%, Sealed, 1st month
[14] = Batch 1, 40° C./Relative Humidity 75%, Sealed, 2nd month
[15] = Batch 1, 40° C./Relative Humidity 75%, Sealed, 3rd month
[16] = Batch 1, 40° C./Relative Humidity 75%, Sealed, 6th month
[17] = Batch 2, 40° C./Relative Humidity 75%, Sealed, 1st month
[18] = Batch 2, 40° C./Relative Humidity 75%, Sealed, 2nd month
[19] = Batch 2, 40° C./Relative Humidity 75%, Sealed, 3rd month
[20] = Batch 2, 40° C./Relative Humidity 75%, Sealed, 6th month
[21] = Batch 3, 40° C./Relative Humidity 75%, Sealed, 1st month
[22] = Batch 3, 40° C./Relative Humidity 75%, Sealed, 2nd month
[23] = Batch 3, 40° C./Relative Humidity 75%, Sealed, 3rd month
[24] = Batch 3, 40° C./Relative Humidity 75%, Sealed, 6th month
[25] = Batch 1, 40° C./Relative Humidity 75%
[26] = Batch 3, 40° C./Relative Humidity 75%

CCOc1cc([C@@H](CS(C)(=O)=O)n2c(=O)[nH]c3c(C)c(-c4ccccc4F)cnc32)ccc1OC [Crystal Form A of Compound 1]
Status (after 2 days) ([1]; Acetone 0.4 mL): Suspension
Status (after 2 days) ([1]; Acetone:Water (1:2) 0.4 mL): Suspension
Status (after 2 days) ([1]; Acetonitrile 0.4 mL): Suspension
Status (after 2 days) ([1]; Acetonitrile:Water (1:1) 0.4 mL): Suspension
Status (after 2 days) ([1]; Ethanol 0.4 mL): Suspension
Status (after 2 days) ([1]; Ethanol:Water (3:1) 0.4 mL): Suspension
Status (after 2 days) ([1]; Ethyl Acetate 0.4 mL): Suspension
Status (after 2 days) ([1]; Methanol 0.4 mL): Suspension
Status (after 2 days) ([1]; Methanol:Water (3:1) 0.4 mL): Suspension
Status (after 2 days) ([1]; Tetrahydrofuran 0.3 mL): Suspension
Stability in solvents (conclusion) ([1]; alcohol solvent, acetonitrile, acetone, ethyl acetate, tetrahydrofuran and mixed solvents with water): good stability
Appearance ([2]; Day 0 (initial)): White
Content ([2]; Day 0 (initial)): 99.5%
Total Impurity ([2]; Day 0 (initial)): 0.11%
Appearance [2, 5]: White
Content [2, 5]: 99.0%
Total Impurity [2, 5]: 0.16%
Appearance [2, 6]: White
Content [2, 6]: 98.9%
Total Impurity [2, 6]: 0.16%
Appearance [2, 7]: White
Content [2, 7]: 99.0%
Total Impurity [2, 7]: 0.16%
Appearance [2, 8]: White
Content [2, 8]: 99.2%
Total Impurity [2, 8]: 0.16%
Appearance [2, 9]: White
Content [2, 9]: 98.8%
Total Impurity [2, 9]: 0.16%
Appearance [2, 10]: White
Content [2, 10]: 99.0%
Total Impurity [2, 10]: 0.16%
Appearance [2, 11]: White
Content [2, 11]: 98.8%
Total Impurity [2, 11]: 0.11%
Appearance [2, 12]: White
Content [2, 12]: 98.6%
Total Impurity [2, 12]: 0.11%
Solid stability (conclusion) ([2]; high temperature, high humidity or strong light conditions): good stability
Appearance [3, 13]: White powder
Content [3, 13]: 99.3%
Total Impurity [3, 13]: 0.09%
Appearance [3, 14]: White powder
Content [3, 14]: 99.1%
Total Impurity [3, 14]: 0.09%
Appearance [3, 15]: White powder
Content [3, 15]: 99.5%
Total Impurity [3, 15]: 0.09%
Content [3, 16]: 100.1%
Total Impurity [3, 16]: 0.10%
Appearance ([3]; Batch 1, Day 0): White powder
Content ([3]; Batch 1, Day 0): 99.4%
Crystal Form (XRPD) ([3]; Batch 1, Day 0): Crystal Form A
Total Impurity ([3]; Batch 1, Day 0): 0.09%
Appearance [3, 17]: White powder
Content [3, 17]: 99.1%
Total Impurity [3, 17]: 0.11%
Appearance [3, 18]: White powder
Content [3, 18]: 99.0%
Total Impurity [3, 18]: 0.11%
Appearance [3, 19]: White powder
Content [3, 19]: 99.2%
Total Impurity [3, 19]: 0.10%
Appearance [3, 20]: White powder
Content [3, 20]: 100.5%
Crystal Form (XRPD) [3, 20]: Crystal Form A
Total Impurity [3, 20]: 0.12%
Appearance ([3]; Batch 2, Day 0): White powder
Content ([3]; Batch 2, Day 0): 99.4%
Crystal Form (XRPD) ([3]; Batch 2, Day 0): Crystal Form A
Total Impurity ([3]; Batch 2, Day 0): 0.10%
Appearance [3, 21]: White powder
Content [3, 21]: 98.8%
Total Impurity [3, 21]: 0.16%
Appearance [3, 22]: White powder
Content [3, 22]: 98.9%
Total Impurity [3, 22]: 0.16%
Appearance [3, 23]: White powder
Content [3, 23]: 99.2%
Total Impurity [3, 23]: 0.16%
Content [3, 24]: 100.0%
Total Impurity [3, 24]: 0.11%
Appearance ([3]; Batch 3, Day 0): White powder
Content ([3]; Batch 3, Day 0): 99.5%
Crystal Form (XRPD) ([3]; Batch 3, Day 0): Crystal Form A
Total Impurity ([3]; Batch 3, Day 0): 0.11%
Solid stability (conclusion) ([3]; accelerated conditions of 40° C./Relative Humidity 75%): good stability
Appearance [4, 25]: White powder
Crystal Form (XRPD) [4, 25]: Crystal Form A
Appearance [4, 26]: White powder
Crystal Form (XRPD) [4, 26]: Crystal Form A
